In US8765688B2, “Anti-dandruff compositions containing peptides” (priority 2007, dated 2014):
Numbered stars: 1 amine (or outer) side, 2 acyl side, 3 side chain; on linkers, the order of the positions; unused ones are H or OH. Bridge positions count the residues as written; N and C are the ends. Square brackets hold non-standard residues; d marks the D form. Ends that are not written are not given here. Peptide text beside a SMILES is read from it. * marks the point of attachment. Orn(4R-OH,5R-OH) = O=C([C@H](C[C@@H](O)[C@@H](O)N[*:3])N[*:1])[*:2]; hTyr(3S-OH,4S-OH) = N[C@H](C(=O)O)[C@H](O)[C@@H](O)c1ccc(O)cc1; Pro(3S-OH,4S-Me) = C[C@H]1CN[C@H](C(=O)O)[C@H]1O; Benzoyl(4-octyloxy) = CCCCCCCCOc1ccc(C(=O)*)cc1; Hyp = O=C(O)[C@@H]1C[C@@H](O)CN1

How the values were obtained:
Malassezia furfur [1] = test: Inhibition of Malassezia furfur growth test (optical density and colony-forming units), Examples 1 and 2; assay type: cell-based; conditions: solution in DMSO, 25 μM; for colony-forming units: 10 μl plated out
Experimental: Growth medium: M472-Pitysporum medium according to DSMZ
(§1) The components were sterilized at 121° C., 1 bar superatmospheric pressure for 20 minutes.
2 g/l of olive oil were sterilized by filtration and, after autoclaving, added to the other components.
(§2) Since it was a two-phase medium, the complete medium was treated with sonication in order to enlarge the phase boundary.
For agar plates, if appropriate, […] of agar agar were added to the medium.
The growth test was carried out as follows: A shake flask with M472-Pitysporum medium was inoculated with M. furfur and incubated with shaking overnight at 30° C. and 200 rpm.
A 96-well microtiter plate was filled with in each case 100 μl of M472-Pitysporum medium and inoculated with M. furfur suspension of the overnight culture. The M. furfur suspension was adjusted at the start of the experiment to an optical density, measured at 620 nm, of 0.02. The concentrates of the inhibitor solutions were 1 mM in water or DMSO.
(§3) The growth of the following batches was compared by measuring the optical density:
M. furfur suspension without the addition of an inhibitor.
This was to exclude that an inhibition is attributable merely to the effect of the DMSO, or a false positive result being observed.
M. furfur suspension and addition of an aqueous P18 solution with a final concentration of 25 μM.
M. furfur suspension and addition of a P18 solution in DMSO with a final concentration of 25 μM.
M. furfur suspension and addition of a zinc pyrithione (ZPT, Sigma-Aldrich) solution in DMSO with a final concentration of 25 μM.
M. furfur suspension and addition of a Ketoconazole (Sigma-Aldrich) solution in DMSO with a final concentration of 25 μM.
(§4) The microtiter plate was incubated with shaking at 30° C.
[…] The colony-forming units (CFU) were then determined by plating out 10 μl from each of the suspensions and, after incubation for 6 days, counting the colonies. The CFU was determined in order to exclude an influence of the two-phase medium and also the growth form of M. furfur on the optical density. […] The experiments were carried out at least in triple determinations and independently repeated.
For this, the procedure was as described in Example 1. 1 mM stock solutions of the fusion peptide P18, magainin 2 and cecropin A in DMSO were prepared. The final concentrations of the peptides in the growth experiments were 25 μM. The same amount of DMSO was likewise added to the suspension without inhibitor in order to exclude a growth-inhibiting effect of the DMSO.
The growth of the following mixtures was compared by measuring the optical density:
This was to exclude that an inhibition is attributable merely to the effect of the DMSO.
M. furfur suspension and addition of a magainin 2 solution in DMSO with a final concentration of 25 μM.
M. furfur suspension and addition of a cecropin A solution in DMSO with a final concentration of 25 μM.
M. furfur suspension and addition of a peptide P18 (SEQ ID NO3) solution in DMSO with a final concentration of 25 μM.

Malassezia furfur [2] = conditions: cited from earlier work; for growth inhibition of M. furfur (in words): 25 μM, Lopez-Garcia et al., 2006
Candida albicans = conditions: cited from earlier work
Malassezia furfur [3] = test: Growth inhibition of Malassezia furfur with equal concentrations (% by weight) of P18, Zincpyrithione, Climbazole and Ketoconazole, CFU; assay type: cell-based; conditions: 362 μM final conc., mean ± SD
Experimental: (§5) Growth medium: M472-Pityrosporum medium according to DSMZ
as §1
(§6) 2 g/L of olive oil (sterilized by filtration and, after autoclaving, added to the other components)
as §2
(§7) For agar plates, if appropriate, 150 g/L of agar agar were added to the medium.
(§8) The growth test was carried out as follows: A shake flask with M472-Pityrosporum medium was inoculated with M. furfur and incubated with shaking overnight at 30° C. and 200 rpm.
A 96-well microtiter plate was filled with in each case 100 μl of M472-Pityrosporum medium and inoculated with M. furfur suspension of the overnight culture. The M. furfur suspension was adjusted at the start of the experiment to an optical density, measured at 600 nm, of 0.02. The concentrates of the inhibitor solutions were 1 mM in DMSO for the peptide P18 and 10 mM in DMSO for Zincpyrithione, Ketoconazole and Climbazole. The DMSO final concentrations were maintained the same in all experiments. This means that a corresponding volume of DMSO was added to the mixture in the case of a higher concentration of Zincpyrithione, Ketoconazole or Climbazole concentrate in order to ensure comparability to the mixtures containing P18.
as §3
M. furfur suspension and addition of P18 solution with a final concentration of 50 μM (equal to 0.0115% (w/w))
M furfur suspension and addition of Zincpyrithione (ZPT) solution with a final concentration of 362 μM (comparison to the mixture containing 50 μM of the peptide P18)
M furfur suspension and addition of Ketoconazole solution with a final concentration of 216 μM (comparison to the mixture containing 50 μM of the peptide P18)
M furfur suspension and addition of Climbazole solution with a final concentration of 390 μM (comparison to the mixture containing 50 μM of the peptide P18)
as §4
After 24 hours of incubation, the colony-forming units (CFU) were determined by plating out 10 μl of medium from each of the suspensions on agar plates. After incubation for 6 days, the colonies on the plates were counted. The CFU was determined in order to exclude an influence of the two-phase medium and also the growth form of M. furfur on the optical density. The experiments were carried out in at least two independent experiments, each with double determination.

Malassezia furfur [4] = test: Incubation times with P18 from 5 minutes to 1 hour, CFU of M. furfur, compared to Zincpyrithione; assay type: cell-based
Experimental: Since growth inhibition of M. furfur by the peptide P18 (P18 peptide sequence H-KWKLFKKIPKFLHLAKKF-NH2; SEQ ID NO: 3) had so far only been analyzed over incubation times of more than one hour, now the effect of the peptide P18 within the first minutes of incubation (5 minutes, 10 minutes and 20 minutes) up to the first hour after adding to the M. furfur overnight culture was tested and compared to the reference substance Zincpyrithione (Sigma Aldrich). For this, the peptide P18 and the reference substance Zincpyrithione were used in concentrations of 100 μM, 200 μM and 500 μM. The experiments were carried out as follows:
as §5, §1, §6, §2, §7, §8
A 96-well microtiter plate was filled with in each case 100 μl of M472-Pityrosporum medium and inoculated with M. furfur suspension of the overnight culture. The M. furfur suspension was adjusted at the start of the experiment to an optical density, measured at 600 nm, of 0.1.
The growth of the following batches was compared:
M. furfur suspension and addition of the peptide P18 with a final concentration of 100 μM, plating out after 5 minutes, 10 minutes, 20 minutes and 60 minutes
M. furfur suspension and addition of the peptide P18 with a final concentration of 200 μM plating out after 5 minutes, 10 minutes, 20 minutes and 60 minutes
M. furfur suspension and addition of the peptide P18 with a final concentration of 500 μM plating out after 5 minutes, 10 minutes, 20 minutes and 60 minutes
M. furfur suspension and addition of Zincpyrithione with a final concentration of 100 μM plating out after 5 minutes, 10 minutes, 20 minutes and 60 minutes
M. furfur suspension and addition of Zincpyrithione with a final concentration of 200 μM plating out after 5 minutes, 10 minutes, 20 minutes and 60 minutes
M. furfur suspension and addition of Zincpyrithione with a final concentration of 500 μM plating out after 5 minutes, 10 minutes, 20 minutes and 60 minutes
as §4
After the incubation times indicated above, the colony-forming units (CFU) were determined by plating out 50 μl from each of the suspensions and, after incubation for 6 days, counting the colonies. The CFU was determined in order to exclude an influence of the two-phase medium and also the growth form of M. furfur on the optical density. The experiments were independently repeated.

With `CC(=O)N1CCN(c2ccc(OCC3COC(Cn4ccnc4)(c4ccc(Cl)cc4Cl)O3)cc2)CC1` (stereo not drawn) [Ketoconazole, reference compound] the optical density (Malassezia furfur [1]; incubation time 0 h) was 0, the optical density (Malassezia furfur [1]; incubation time 16 h) was 0 and the colony-forming units (Malassezia furfur [1]; incubation time 16 h) was 80. For the same compound, the optical density (Malassezia furfur [1]; incubation time 24 h) was 0.004, the colony-forming units (Malassezia furfur [1]; incubation time 24 h) was 22 and the optical density (Malassezia furfur [1]; incubation time 40 h) was 0.013. The colony-forming units (Malassezia furfur [1]; incubation time 40 h) was 90.

In the case of phytosphingosine salts, the “sensitivity of M. furfur (in words)” value (Malassezia furfur [2]; Nenoff et al., 2002) is listed as “appeared to be resistant”.

For “cecropin A (KWKLFKKIEKVGQNIRDGIIKAGPAVAVVGQATQIAK; ends and bridges not checked; UniProt P01507 27-63, looked up) [peptide of 37 amino acids from Hyalophora cecropia, reference compound]”, the CFU (Malassezia furfur [1]; incubation time 64 h) was >5000 and the CFU (Malassezia furfur [1]; incubation time 72 h) was >5000.

For basic phytosphingosines, the “concentration inhibiting M. furfur” value (Malassezia furfur [2]; Nenoff et al., 2002) is listed as 6250 µg/mL.

For magainin 2 [reference compound], the CFU (Malassezia furfur [1]; incubation time 64 h) is listed as >10 000, the CFU (Malassezia furfur [1]; incubation time 72 h) is listed as >10 000 and the “growth inhibition of M. furfur (in words)” value (Malassezia furfur [2]) is listed as “comparably better effect”.

In the case of `CCCCCCCCOc1ccc(C(=O)N[C@H]2C[C@@H](O)[C@@H](O)NC(=O)[C@@H]3[C@@H](O)[C@@H](C)CN3C(=O)[C@H]([C@@H](C)O)NC(=O)[C@H]([C@H](O)[C@@H](O)c3ccc(O)cc3)NC(=O)[C@@H]3C[C@@H](O)CN3C(=O)[C@H]([C@@H](C)O)NC2=O)cc1` [cilofungin] ({Benzoyl(4-octyloxy)}-[Orn(4R-OH,5R-OH)]T[Hyp][hTyr(3S-OH,4S-OH)]T[Pro(3S-OH,4S-Me)]; lactam 1-C), the “C. albicans strains that did not grow” value (Candida albicans; cilofungin concentration of 0.62 μg/ml, Hanson et al. 1989) is listed as 76% and the “inhibition of M. furfur (in words)” value (Malassezia furfur [2]; 0.62 μg/ml, Hanson et al. 1989) is listed as “not inhibited”.

In the case of phytosphingosines, the “concentrations inhibiting Candida albicans” value (Candida albicans; Nenoff et al., 2002) is given as 152 to 269 µg/mL.

“zinc pyrithione [ZPT, reference compound]” showed an optical density (Malassezia furfur [1]; incubation time 0 h) of 0, an optical density (Malassezia furfur [1]; incubation time 16 h) of 0 and a colony-forming units (Malassezia furfur [1]; incubation time 16 h) of 42. For the same compound, the optical density (Malassezia furfur [1]; incubation time 24 h) was 0, the colony-forming units (Malassezia furfur [1]; incubation time 24 h) was 22 and the optical density (Malassezia furfur [1]; incubation time 40 h) was 0. The colony-forming units (Malassezia furfur [1]; incubation time 40 h) was 28, the colony-forming units (Malassezia furfur [3]; incubation time 24 h) was 60 ± 40 and the colony-forming units (Malassezia furfur [3]; incubation time 40 h) was 26 ± 7. The “colony-forming units after the indicated incubation time” value (Malassezia furfur [4]; final concentration 100 μM, 5 minutes) was >1000, the “colony-forming units after the indicated incubation time” value (Malassezia furfur [4]; final concentration 100 μM, 10 minutes) was >1000 and the “colony-forming units after the indicated incubation time” value (Malassezia furfur [4]; final concentration 100 μM, 20 minutes) was >1000. For the same compound, the “colony-forming units after the indicated incubation time” value (Malassezia furfur [4]; final concentration 100 μM, 60 minutes) was >1000, the “colony-forming units after the indicated incubation time” value (Malassezia furfur [4]; final concentration 200 μM, 5 minutes) was >1000 and the “colony-forming units after the indicated incubation time” value (Malassezia furfur [4]; final concentration 200 μM, 10 minutes) was >1000. For the same compound, the “colony-forming units after the indicated incubation time” value (Malassezia furfur [4]; final concentration 200 μM, 20 minutes) was >1000, the “colony-forming units after the indicated incubation time” value (Malassezia furfur [4]; final concentration 200 μM, 60 minutes) was >1000 and the “colony-forming units after the indicated incubation time” value (Malassezia furfur [4]; final concentration 500 μM, 5 minutes) was >1000. The “colony-forming units after the indicated incubation time” value (Malassezia furfur [4]; final concentration 500 μM, 10 minutes) was >1000, the “colony-forming units after the indicated incubation time” value (Malassezia furfur [4]; final concentration 500 μM, 20 minutes) was >1000 and the “colony-forming units after the indicated incubation time” value (Malassezia furfur [4]; final concentration 500 μM, 60 minutes) was >1000.

In the case of “Cecropin P1 (SWLSKTAKKLENSAKKRISEGIAIAIQGGPR; Cecropin-P1; UniProt P14661 14-44, looked up)”, the “growth inhibition of M. furfur (in words)” value (Malassezia furfur [2]) is listed as “moderate antifungal effect”.
